Type in all cases: cell-based, human
In test [1] the test system is HCT-15. The experiment in a line: 3H thymidine proliferation assay, HCT-15. As for the experimental part:
(§1) This example generally describes the procedures used to assay the antiproliferative activity of compounds of this invention or their conjugates. Human tumor cell lines were obtained from the American Type Culture Collection (ATCC), P.O. Box 1549, Manassas, Va. 20108, USA, and cultured according to instruction from the ATCC. Cells were seeded at 1.0×10^3 or 1.0×10^4 cells/well in 96-well plates for 3 h for ATP assays or ^3H thymidine assays, respectively. 1:3 serial dilutions of free (unconjugated) compounds or their conjugates were added to the wells. Plates were allowed to incubate for 24 to 72 h. The ^3H thymidine plates were pulsed with 1.0 μCi of ^3H-thymidine per well for the last 24 hours of the total incubation period, harvested, and read on a Top Count Scintillation Counter (Packard Instruments, Meriden, Conn.). ATP levels in the ATP plates were measured using the […]-GLO® Luminescent Cell Viability kit following the manufacturer's manual and read on a GLOMAX® 20/20 luminometer (both from Promega, Madison, Wis., USA). The EC50 values—the concentration at which an agent inhibits or reduces cell proliferation by 50% —were determined using PRISM™ software, version 4.0 (GraphPad Software, La Jolla, Calif., USA).
(§2) Using the ^3H thymidine or the ATP luminescence assay, or both, the activities of compounds of this invention were assayed against the following cancer cell lines: HCT-15 (colorectal cancer, multi-drug resistant (MDR)); Hep3B (liver cancer); LNCaP (prostate cancer, androgen receptor positive (AR^+)); MDA-MB-231 (breast cancer, estrogen receptor, progesterone receptor, and Her2 negative (triple negative)); A2058 (melanoma); U-87 MG (glioblastoma); NCI-H460 (NSCLC); A549 (NSCLC); HPAC (pancreatic cancer, primary); PC3 (prostate cancer, AR); BT474 (breast cancer, Her2 highly positive (Her2hi)); SKOV3 (ovarian cancer, Her2hi); 786-O (renal cancer); UO-31 (renal cancer, MDR); NCI-H740 (SCLC); DMS53 (SCLC); SK-BR3 (breast cancer, Her2hi); ZR-75 (breast cancer, estrogen receptor positive); OVCAR3 (ovarian cancer); HL-60 (APL); OVCAR8/Adr (ovarian cancer, MDR); CEM-Cl (ALL); Nomo-1 (AML); RPMI-8226 (MM)); Raji (lymphoma); SW-480 (colorectal cancer, metastatic); SW-620 (colorectal cancer); and H226 (lung cancer). (Not all compounds were assayed against all cell lines.)
(§3) Table 2 provides the data for proliferation assays using the ^3H thymidine method, with an incubation period of 72 h.

Test [2] relates to LNCaP. The test can be described thus: 3H thymidine proliferation assay, LNCaP. Here is the method: as §1, §2, §3
Test [3] concerns HPAC. The test can be described thus: 3H thymidine proliferation assay, HPAC. As for the experimental part: as §1, §2, §3
Test [4] concerns 786-O. The experiment in a line: 3H thymidine proliferation assay, 786-O. As for the experimental part:
as §1, §2, §3

Test [5] has as its system H740. The experiment in a line: 3H thymidine proliferation assay, H740. Here is the method: as §1, §2, §3
The test system of test [6] is ZR-75. The test can be described thus: 3H thymidine proliferation assay, ZR-75. As for the experimental part: as §1, §2, §3
Test [7] relates to Raji. The experiment in a line: 3H thymidine proliferation assay, Raji. As for the experimental part: as §1, §2, §3
Test [8] concerns HCT-15. The test can be described thus: ATP luminescence proliferation assay, HCT-15. As for the experimental part:
as §1, §2
(§4) Table 3 provides the data for the ATP luminescence proliferation assays, with an incubation period of 48, 72, or 96 h, as noted.

In test [9] the test system is LNCaP. The test can be described thus: ATP luminescence proliferation assay, LNCaP. Here is the method: as §1, §2, §4
In test [10] the test system is U-87 MG. The experiment in a line: ATP luminescence proliferation assay, U-87 MG. Here is the method: as §1, §2, §4
Test [11] relates to UO-31. The test can be described thus: ATP luminescence proliferation assay, UO-31. As for the experimental part: as §1, §2, §4
The test system of test [12] is Nomo-1. The experiment in a line: ATP luminescence proliferation assay, Nomo-1. Here is the method:
as §1, §2, §4

In test [13] the test system is RPMI-8226. The experiment in a line: ATP luminescence proliferation assay, RPMI-8226. Here is the method:
as §1, §2, §4

The test system of test [14] is A549. The test can be described thus: ATP luminescence proliferation assay, A549. Here is the method:
as §1, §2, §4

The mark [15] stands for this setting: 3H thymidine method, 72 h incubation, read-out: EC50, HCT-15.
Setting [16] is: 3H thymidine method, 72 h incubation, read-out: EC50, LNCaP.
[17] abbreviates: 3H thymidine method, 72 h incubation, read-out: EC50, HPAC.
Where [18] appears, read: 3H thymidine method, 72 h incubation, read-out: EC50, 786-O.
Where [19] appears, read: 3H thymidine method, 72 h incubation, read-out: EC50, H740.
Where [20] appears, read: 3H thymidine method, 72 h incubation, read-out: EC50, ZR-75.
The mark [21] stands for this setting: 3H thymidine method, 72 h incubation, read-out: EC50, Raji.
Setting [22] is: ATP luminescence, 72 h incubation, read-out: EC50 U-87 MG (72 h).
Setting [23] is: ATP luminescence, UO-31, 48 h incubation, read-out: EC50 UO-31 (48 h).
Where [24] appears, read: ATP luminescence, Nomo-1, 48 h incubation, read-out: EC50 Nomo-1 (48 h).
[25] abbreviates: Homo sapiens, HCT-15, read-out: EC50, HCT-15, 3H thymidine method, 72 h incubation.
Setting [26] is: Homo sapiens, LNCaP, read-out: EC50, LNCaP, 3H thymidine method, 72 h incubation.
The mark [27] stands for this setting: Homo sapiens, HPAC, read-out: EC50, HPAC, 3H thymidine method, 72 h incubation.
Where [28] appears, read: Homo sapiens, 786-0, read-out: EC50, 786-O, 3H thymidine method, 72 h incubation.
The mark [29] stands for this setting: Homo sapiens, read-out: EC50, H740, 3H thymidine method, 72 h incubation.
The mark [30] stands for this setting: Homo sapiens, ZR75, read-out: EC50, ZR-75, 3H thymidine method, 72 h incubation.
Setting [31] is: Homo sapiens, Raji, read-out: EC50, Raji, 3H thymidine method, 72 h incubation.
Where [32] appears, read: Homo sapiens, HCT-15, 72 h, read-out: EC50 HCT-15 (72 h), ATP luminescence, HCT-15, 72 h incubation.
The mark [33] stands for this setting: Homo sapiens, 72 h, read-out: EC50 U-87 MG (72 h), ATP luminescence, U-87 MG, 72 h incubation.
[34] abbreviates: Homo sapiens, A549, 48 h, read-out: EC50 A549 (48 h), ATP luminescence, A549, 48 h incubation.
The mark [35] stands for this setting: Homo sapiens, UO-31, 48 h, read-out: EC50 UO-31 (48 h), ATP luminescence, UO-31, 48 h incubation.
[36] abbreviates: Homo sapiens, NOMO-1, 48 h, read-out: EC50 Nomo-1 (48 h), ATP luminescence, Nomo-1, 48 h incubation.
[37] abbreviates: Homo sapiens, RPMI-8226, 72 h, read-out: EC50 RPMI-8226 (72 h), ATP luminescence, RPMI-8226, 72 h incubation.
Where [38] appears, read: Homo sapiens, 72 h, read-out: EC50 LNCaP (72 h), ATP luminescence, LNCaP, 72 h incubation.

Where two headings read alike, the source gives them in different places.

A word on the EC50: it is the concentration at which the effect is half-maximal. Regarding `CC[C@H](C)[C@H](NC(=O)[C@H]1CCCCN1C)C(=O)N(COC)[C@H](C[C@@H](OC)c1nc(C(=O)N[C@@H](Cc2ccccc2)C(=O)OC)cs1)C(C)C` [Compound 29c], the 50% effective concentration (EC50) in test [1] (setting [15]) turned out to be 2.4 nM; in [2] (setting [16]), 5.2 nM; in test [3] (setting [17]), 32 nM; in [4] (setting [18]), 3.9 nM; in [5] (setting [19]), 5.3 nM; in test [6] (setting [20]), 44 nM. Further, the EC50 worked out at 8.5 nM in test [7] (setting [21]); 200 nM in test [8] (ATP luminescence, HCT-15, 48 h incubation, read-out: EC50 HCT-15 (48 h)); 255 nM in test [9] (ATP luminescence, 72 h incubation, read-out: EC50 LNCaP (72 h)); 136 nM in [10] (setting [22]); 26 nM in test [11] (setting [23]); 2.9 nM in [12] (setting [24]). In addition, the EC50 in test [13] (ATP luminescence, RPMI-8226, 48 h incubation, read-out: EC50 RPMI-8226 (48 h)) amounted to 70 nM.
Take `CC[C@H](C)[C@H](NC(=O)[C@H]1CCCCN1C)C(=O)N(C)[C@H](C[C@@H](OC)c1nc(C(=O)N[C@H](CC(=O)OC)Cc2ccccc2)cs1)C(C)C` [Compound 25]: the EC50 in test [1] (setting [25]) is 280 nM; in test [2] (setting [26]), 930 nM; in test [3] (setting [27]) it was 206 nM; in test [4] (setting [28]), 1860 nM; in test [5] (setting [29]), 347 nM; in [6] (setting [30]) it was over 3000 nM. Further, the EC50 came out at 231 nM in test [7] (setting [31]); 366 nM in test [8] (setting [32]); 357 nM in [10] (setting [33]); 111 nM in test [14] (setting [34]); 759 nM in [11] (setting [35]); 83 nM in test [12] (setting [36]). Further, the EC50 in [13] (setting [37]) worked out at 235 nM.
Turning to `CC[C@H](C)[C@H](NC(=O)[C@H]1CCCCN1C)C(=O)N(COC(=O)CC(C)C)[C@H](C[C@@H](OC(C)=O)c1nc(C(=O)N[C@@H](Cc2ccccc2)C(=O)OC)cs1)C(C)C` [Compound 29], the EC50 worked out at 0.18 nM in test [1] (setting [15]); 0.54 nM in test [2] (setting [16]); 0.069 nM in test [3] (setting [17]); 1.2 nM in test [4] (setting [18]); 0.41 nM in test [5] (setting [19]); 3.8 nM in [6] (setting [20]). In addition, the EC50 in test [7] (setting [21]) was found to be 0.024 nM; in test [8] (ATP luminescence, HCT-15, 72 h incubation, read-out: EC50 HCT-15 (72 h)), 4.5 nM; in test [10] (setting [22]), 4.9 nM; in [14] (ATP luminescence, A549, 48 h incubation, read-out: EC50 A549 (48 h)) it was 3.9 nM; in test [11] (setting [23]), 2.7 nM; in test [12] (setting [24]), 0.24 nM. Moreover, in test [13] (ATP luminescence, RPMI-8226, 72 h incubation, read-out: EC50 RPMI-8226 (72 h)), the EC50 amounted to 1 nM.
`CC[C@H](C)[C@H](NC(=O)[C@H]1CCCCN1C)C(=O)N(COC(=O)CC(C)C)[C@H](C[C@@H](OC(C)=O)c1nc(C(=O)N[C@@H](Cc2ccc(N)cc2)CC(C)C(=O)O)cs1)C(C)C` (some centres unmarked) [Compound 54]: the EC50 was determined as 0.44 nM in test [1] (setting [25]); 16 nM in [2] (setting [26]); 0.83 nM in test [3] (setting [27]); 6.9 nM in test [4] (setting [28]); 10 nM in test [5] (setting [29]); 2.2 nM in test [6] (setting [30]). The EC50 in test [7] (setting [31]) was found to be 0.2 nM; in test [8] (setting [32]) it was 2.6 nM; in test [9] (setting [38]), 11 nM; in test [10] (setting [33]) it was 1.6 nM; in test [14] (setting [34]), 3 nM; in test [12] (setting [36]), 3.1 nM. Further, in test [13] (setting [37]), the EC50 was determined as 1.6 nM.
In the case of `CC[C@H](C)[C@H](NC(=O)[C@H]1CCCCN1C)C(=O)N(C)[C@H](C[C@@H](OC)c1nc(C(=O)N[C@H](CCC(=O)OC)Cc2ccccc2)cs1)C(C)C` [Compound 26], the EC50 in [1] (setting [25]) is 31 nM; in [2] (setting [26]) it was over 3000 nM; in [3] (setting [27]), 11 nM; in test [4] (setting [28]), 26 nM; in test [5] (setting [29]), 3 nM; in test [6] (setting [30]), over 300 nM. The EC50 in test [7] (setting [31]) worked out at 7 nM; in [8] (Homo sapiens, HCT-15, 48 h, read-out: EC50 HCT-15 (48 h), ATP luminescence, HCT-15, 48 h incubation) it was 113 nM; in test [9] (setting [38]), 412 nM; in test [10] (setting [33]), 94 nM; in test [11] (setting [35]) it was 240 nM; in test [12] (setting [36]) it was 3.9 nM. In addition, the EC50 in test [13] (Homo sapiens, RPMI-8226, 48 h, read-out: EC50 RPMI-8226 (48 h), ATP luminescence, RPMI-8226, 48 h incubation) turned out to be 45 nM.

The values are drawn from patent US20130204033A1, “ANTIPROLIFERATIVE COMPOUNDS, CONJUGATES THEREOF, METHODS THEREFOR, AND USES THEREOF” (Medarex, Inc., priority 2009, published 2013).
